Data reported in patent US20120165223A1 (priority 2006, published 2012).

System: crypt cells of the colon of HFA mice
Test: DNA chip showing specific responses to human intestinal normal bacterial flora, colistin-treated HFA mice
Details: 500 μg/Ml in drinking water three weeks
[1] = colon crypt cells, then halted one week

Description: The colon is collected and the gene expression of crypt cells obtained from the colon is compared with the control group (HFA mice).
In other words, the material or the food is orally administered to HFA mice, which are autopsied along with control HFA mice not having been administered. The crypt cells of the colon are collected to separate RNA. Next, the separated RNA is amplified and Cy3 fluorescence material is labelled on the genes of HFA mice and Cy5 fluorescence material is labelled on the genes of the administered group to react with the gene chip which is a product of the present invention to get the difference of expressions of the 90 genes.
RNA is collected and amplified from the crypt cells of the colon to manufacture a DNA chip, which is reacted with RNA of HFA mice being the control group. The degree of expressing genes and the change of composition of intestinal normal bacterial flora of the colon and the activity of the enzymes produced by the human intestinal bacterial flora such as glucuomidase, glucosidase, nitrate reductase and azoreductase are investigated and used as an index showing the disruption of the human intestinal normal bacterial flora.

Substance: colistin sulfate
- Disruption of the human intestinal normal bacterial flora, recovery after stop of administration (one week after stop): not recovered in one week after the administration of colistin is stopped
- Number of genes in total showing a difference by more than 1.5 times in comparison with the control group (then halted one week): 38 genes
- Number of the 90 genes with the same tendency of increase and decrease as observed when the flora is disturbed (then halted one week): 25 genes
- 1110037F02Rik gene expression HFA-Coli/HFA [1]: 13.33
- 1110037F02Rik gene expression, HFA-Coli [1]: 133.2
- 1110038M16Rik gene expression HFA-Coli/HFA [1]: 1.355
- 1110038M16Rik gene expression, HFA-Coli [1]: 195.8
- 1700012H17Rik gene expression HFA-Coli/HFA [1]: 0.969
- 1700012H17Rik gene expression, HFA-Coli [1]: 594.0
- 2610529I12Rik gene expression HFA-Coli/HFA [1]: 1.049
- 2610529I12Rik gene expression, HFA-Coli [1]: 1108
- 4732481h14Rik gene expression HFA-Coli/HFA [1]: 0.750
- 4732481h14Rik gene expression, HFA-Coli [1]: 209.2
- 4930455F23Rik gene expression HFA-Coli/HFA [1]: 0.851
- 4930455F23Rik gene expression, HFA-Coli [1]: 634.5
- 5031404N19 gene expression HFA-Coli/HFA [1]: 0.956
- 5031404N19 gene expression, HFA-Coli [1]: 444.2
- 5430437F03Rik gene expression HFA-Coli/HFA [1]: 1.826
- 5430437F03Rik gene expression, HFA-Coli [1]: 485.8
- 6330590F17Rik gene expression HFA-Coli/HFA [1]: 1.341
- 6330590F17Rik gene expression, HFA-Coli [1]: 84.50
- 9830148O20Rik gene expression HFA-Coli/HFA [1]: 1.400
- 9830148O20Rik gene expression, HFA-Coli [1]: 815.0
- Alas1 gene expression HFA-Coli/HFA [1]: 1.857
- Alas1 gene expression, HFA-Coli [1]: 577.0
- Aldh6a1 gene expression HFA-Coli/HFA [1]: 0.971
- Aldh6a1 gene expression, HFA-Coli [1]: 286.5
- Au043625 gene expression HFA-Coli/HFA [1]: 1.167
- Au043625 gene expression, HFA-Coli [1]: 336.5
- Bnip3l gene expression HFA-Coli/HFA [1]: 1.753
- Bnip3l gene expression, HFA-Coli [1]: 729.5
- C130039O16 gene expression HFA-Coli/HFA [1]: 1.160
- C130039O16 gene expression, HFA-Coli [1]: 680.0
- CPd gene expression HFA-Coli/HFA [1]: 0.848
- CPd gene expression, HFA-Coli [1]: 587.8
- Cacnb3 gene expression HFA-Coli/HFA [1]: 0.649
- Cacnb3 gene expression, HFA-Coli [1]: 661.2
- Cav gene expression HFA-Coli/HFA [1]: 1.029
- Cav gene expression, HFA-Coli [1]: 206.0
- Ccnd2 gene expression HFA-Coli/HFA [1]: 0.839
- Ccnd2 gene expression, HFA-Coli [1]: 315.5
- Cdc45l gene expression HFA-Coli/HFA [1]: 1.652
- Cdc45l gene expression, HFA-Coli [1]: 100.8
- Cited1 gene expression HFA-Coli/HFA [1]: 1.222
- Cited1 gene expression, HFA-Coli [1]: 289.0
- Ckap2 gene expression HFA-Coli/HFA [1]: 1.661
- Ckap2 gene expression, HFA-Coli [1]: 548.0
- Cldn8 gene expression HFA-Coli/HFA [1]: 1.195
- Cldn8 gene expression, HFA-Coli [1]: 406.5
- Col3a1 gene expression HFA-Coli/HFA [1]: 2.136
- Col3a1 gene expression, HFA-Coli [1]: 441.0
- Cotl11 gene expression HFA-Coli/HFA [1]: 1.883
- Cotl11 gene expression, HFA-Coli [1]: 1227
- Crem gene expression HFA-Coli/HFA [1]: 0.890
- Crem gene expression, HFA-Coli [1]: 355.8
- Crsp7 gene expression HFA-Coli/HFA [1]: 2.045
- Crsp7 gene expression, HFA-Coli [1]: 1218
- Cul4b gene expression HFA-Coli/HFA [1]: 1.715
- Cul4b gene expression, HFA-Coli [1]: 91.75
- D230019K24Rik gene expression HFA-Coli/HFA [1]: 2.598
- D230019K24Rik gene expression, HFA-Coli [1]: 142.2
- Daf1 gene expression HFA-Coli/HFA [1]: 2.085
- Daf1 gene expression, HFA-Coli [1]: 419.0
- Dap3 gene expression HFA-Coli/HFA [1]: 1.274
- Dap3 gene expression, HFA-Coli [1]: 634.5
- Dcamkl1 gene expression HFA-Coli/HFA [1]: 0.679
- Dcamkl1 gene expression, HFA-Coli [1]: 615.2
- Ddx1 gene expression HFA-Coli/HFA [1]: 1.094
- Ddx1 gene expression, HFA-Coli [1]: 370.0
- Eif2ak3 gene expression HFA-Coli/HFA [1]: 1.274
- Eif2ak3 gene expression, HFA-Coli [1]: 685.0
- Epc1 gene expression HFA-Coli/HFA [1]: 1.452
- Epc1 gene expression, HFA-Coli [1]: 228.8
- Fads3 gene expression HFA-Coli/HFA [1]: 1.422
- Fads3 gene expression, HFA-Coli [1]: 409.2
- Fn3k gene expression HFA-Coli/HFA [1]: 0.785
- Fn3k gene expression, HFA-Coli [1]: 415.5
- Gmnn gene expression HFA-Coli/HFA [1]: 0.997
- Gmnn gene expression, HFA-Coli [1]: 673.8
- Gstm2 gene expression HFA-Coli/HFA [1]: 0.944
- Gstm2 gene expression, HFA-Coli [1]: 164.8
- Guca1a gene expression HFA-Coli/HFA [1]: 1.553
- Guca1a gene expression, HFA-Coli [1]: 417.0
- Hdac5 gene expression HFA-Coli/HFA [1]: 0.949
- Hdac5 gene expression, HFA-Coli [1]: 473.8
- Hsd17b2 gene expression HFA-Coli/HFA [1]: 1.453
- Hsd17b2 gene expression, HFA-Coli [1]: 1737
- Igj gene expression HFA-Coli/HFA [1]: 0.888
- Igj gene expression, HFA-Coli [1]: 210.5
- Il16 gene expression HFA-Coli/HFA [1]: 1.470
- Il16 gene expression, HFA-Coli [1]: 568.0
- Il18 gene expression HFA-Coli/HFA [1]: 1.094
- Il18 gene expression, HFA-Coli [1]: 531.5
- Ipo4 gene expression HFA-Coli/HFA [1]: 2.566
- Ipo4 gene expression, HFA-Coli [1]: 140.5
- Keap1 gene expression HFA-Coli/HFA [1]: 0.687
- Keap1 gene expression, HFA-Coli [1]: 564.0
- Klf3 gene expression HFA-Coli/HFA [1]: 0.764
- Klf3 gene expression, HFA-Coli [1]: 195.8
- Lnx1 gene expression HFA-Coli/HFA [1]: 0.171
- Lnx1 gene expression, HFA-Coli [1]: 98.25
- Lrp10 gene expression HFA-Coli/HFA [1]: 2.132
- Lrp10 gene expression, HFA-Coli [1]: 1648
- Mcpt4 gene expression HFA-Coli/HFA [1]: 1.505
- Mcpt4 gene expression, HFA-Coli [1]: 181.8
- Mllt1 gene expression HFA-Coli/HFA [1]: 0.781
- Mllt1 gene expression, HFA-Coli [1]: 502.8
- Mpp1 gene expression HFA-Coli/HFA [1]: 0.874
- Mpp1 gene expression, HFA-Coli [1]: 638.0
- Mt-1 gene expression HFA-Coli/HFA [1]: 3.610
- Mt-1 gene expression, HFA-Coli [1]: 2033
- Mtmr7 gene expression HFA-Coli/HFA [1]: 2.084
- Mtmr7 gene expression, HFA-Coli [1]: 173.0
- Mut gene expression HFA-Coli/HFA [1]: 1.238
- Mut gene expression, HFA-Coli [1]: 999.5
- Ncoa6 gene expression HFA-Coli/HFA [1]: 3.070
- Ncoa6 gene expression, HFA-Coli [1]: 374.5
- Npm1 gene expression HFA-Coli/HFA [1]: 1.840
- Npm1 gene expression, HFA-Coli [1]: 350.0
- Parva gene expression HFA-Coli/HFA [1]: 1.330
- Parva gene expression, HFA-Coli [1]: 153.0
- Per1 gene expression HFA-Coli/HFA [1]: 1.227
- Per1 gene expression, HFA-Coli [1]: 803.5
- Plp gene expression HFA-Coli/HFA [1]: 1.232
- Plp gene expression, HFA-Coli [1]: 2108
- Prkrir gene expression HFA-Coli/HFA [1]: 0.644
- Prkrir gene expression, HFA-Coli [1]: 510.0
- Ptgs1 gene expression HFA-Coli/HFA [1]: 2.280
- Ptgs1 gene expression, HFA-Coli [1]: 2454
- Ptgs2 gene expression HFA-Coli/HFA [1]: 1.721
- Ptgs2 gene expression, HFA-Coli [1]: 423.8
- Purb gene expression HFA-Coli/HFA [1]: 2.438
- Purb gene expression, HFA-Coli [1]: 527.8
- Rab6ip1 gene expression HFA-Coli/HFA [1]: 2.725
- Rab6ip1 gene expression, HFA-Coli [1]: 203.0
- Rgs12 gene expression HFA-Coli/HFA [1]: 1.395
- Rgs12 gene expression, HFA-Coli [1]: 152.8
- Rhcg gene expression HFA-Coli/HFA [1]: 1.572
- Rhcg gene expression, HFA-Coli [1]: 286.5
- Rnf12 gene expression HFA-Coli/HFA [1]: 1.234
- Rnf12 gene expression, HFA-Coli [1]: 72.50
- Rpa1 gene expression HFA-Coli/HFA [1]: 1.626
- Rpa1 gene expression, HFA-Coli [1]: 353.8
- Rpl27 gene expression HFA-Coli/HFA [1]: 1.021
- Rpl27 gene expression, HFA-Coli [1]: 1768
- Rwl-pending gene expression HFA-Coli/HFA [1]: 1.623
- Rwl-pending gene expression, HFA-Coli [1]: 490.5
- Serping1 gene expression HFA-Coli/HFA [1]: 1.113
- Serping1 gene expression, HFA-Coli [1]: 153.0
- Sh3glb2 gene expression HFA-Coli/HFA [1]: 1.081
- Sh3glb2 gene expression, HFA-Coli [1]: 578.0
- Siat9 gene expression HFA-Coli/HFA [1]: 1.010
- Siat9 gene expression, HFA-Coli [1]: 1439
- Slc22a1l gene expression HFA-Coli/HFA [1]: 1.054
- Slc22a1l gene expression, HFA-Coli [1]: 1671
- Slc26a1 gene expression HFA-Coli/HFA [1]: 1.302
- Slc26a1 gene expression, HFA-Coli [1]: 203.5
- Srpk2 gene expression HFA-Coli/HFA [1]: 0.480
- Srpk2 gene expression, HFA-Coli [1]: 312.2
- Tacc2 gene expression HFA-Coli/HFA [1]: 2.279
- Tacc2 gene expression, HFA-Coli [1]: 179.5
- Tccr gene expression HFA-Coli/HFA [1]: 0.821
- Tccr gene expression, HFA-Coli [1]: 682.0
- Tcl1 gene expression HFA-Coli/HFA [1]: 1.688
- Tcl1 gene expression, HFA-Coli [1]: 290.2
- Tcp11 gene expression HFA-Coli/HFA [1]: 1.222
- Tcp11 gene expression, HFA-Coli [1]: 536.5
- Thsd1 gene expression HFA-Coli/HFA [1]: 1.373
- Thsd1 gene expression, HFA-Coli [1]: 477.8
- Tiam2 gene expression HFA-Coli/HFA [1]: 7.565
- Tiam2 gene expression, HFA-Coli [1]: 160.8
- Tnfsf13b gene expression HFA-Coli/HFA [1]: 2.153
- Tnfsf13b gene expression, HFA-Coli [1]: 256.8
- Tuba4 gene expression HFA-Coli/HFA [1]: 1.623
- Tuba4 gene expression, HFA-Coli [1]: 799.2
- Ugcg gene expression HFA-Coli/HFA [1]: 0.625
- Ugcg gene expression, HFA-Coli [1]: 1158
- Usp15 gene expression HFA-Coli/HFA [1]: 1.355
- Usp15 gene expression, HFA-Coli [1]: 85.00
- Ybx2 gene expression HFA-Coli/HFA [1]: 1.478
- Ybx2 gene expression, HFA-Coli [1]: 164.8
- Zdhhc3 gene expression HFA-Coli/HFA [1]: 1.710
- Zdhhc3 gene expression, HFA-Coli [1]: 357.8
